According to patent publication US11071300B2, “Pesticidally active pyrazole derivatives” (SYNGENTA PARTICIPATIONS AG, priority 2017, dated 2021):
Where two headings read alike, the source gives them in different places.

What was measured:
Format in all cases: in vivo
Spodoptera littoralis = Spodoptera littoralis (Egyptian cotton leaf worm) leaf disc test; conditions: foliar, 72 h, read-out: control (at least one of mortality, anti-feedant effect, growth inhibition); for percent control (mortality, anti-feedant effect or growth inhibition) at 200 ppm: application rate 200 ppm, cotton leaf discs sprayed, L1 larvae, 3 days after infestation
Experimental: Spodoptera littoralis (Egyptian Cotton Leaf Worm)
Cotton leaf discs were placed on agar in 24-well microtiter plates and sprayed with aqueous test solutions prepared from 10′000 ppm DMSO stock solutions. After drying the leaf discs were infested with five L1 larvae. The samples were assessed for mortality, anti-feedant effect, and growth inhibition in comparison to untreated samples 3 days after infestation. Control of Spodoptera littoralis by a test sample is when at least one of mortality, anti-feedant effect, and growth inhibition is higher than the untreated sample.

Plutella xylostella = Plutella xylostella (diamond back moth) artificial diet test; conditions: 120 h, read-out: control (mortality and growth inhibition)
Experimental: Plutella xylostella (Diamond Back Moth):
(§1) 24-well microtiter plates with artificial diet were treated with aqueous test solutions prepared from 10′000 ppm DMSO stock solutions by pipetting. After drying, the plates were infested with L2 larvae (10 to 15 per well). The samples were assessed for mortality and growth inhibition in comparison to untreated samples 5 days after infestation.

Diabrotica Balteata = experiment: Diabrotica balteata (corn root worm) maize sprout test; conditions: 96 h, read-out: control (mortality and growth inhibition)
Experimental: Diabrotica Balteata, (Corn Root Worm)
as §1, with “Maize sprouts, placed on an agar layer in 24-well” for “24-well”, “plates” for “plates with artificial diet”, “spraying.” for “pipetting.”, “(6” for “(10”, “10” for “15”, “4” for “5”

Thrips tabaci = Thrips tabaci (onion thrips) leaf disc test; conditions: foliar, 144 h, read-out: control (mortality)
Experimental: Thrips tabaci (Onion Thrips):
(§2) Sunflower leaf discs were placed on agar in 24-well microtiter plates and sprayed with aqueous test solutions prepared from 10′000 ppm DMSO stock solutions. After drying the leaf discs were infested with a thrips population of mixed ages. The samples were assessed for mortality 6 days after infestation.

Tetranychus urticae = Tetranychus urticae (two-spotted spider mite) leaf disc test; conditions: foliar, 192 h, application rate 200 ppm, bean leaf discs sprayed, 8 days after infestation, read-out: control (mortality on mixed population, mobile stages)
Experimental: Tetranychus urticae (Two-Spotted Spider Mite):
as §2, with “Bean” for “Sunflower”, “discs” for “discs were placed”, “were” for “and”, “mite” for “thrips”, “on mixed population (mobile stages) 8” for “6”

[1] = application rate 200 ppm, artificial diet, L2 larvae, 5 days after infestation
[2] = application rate 200 ppm, maize sprouts sprayed, L2 larvae, 4 days after infestation
[3] = application rate 200 ppm, sunflower leaf discs sprayed, mixed ages, 6 days after infestation

CCN(C(=O)c1cc(-c2cc(-c3c(C(F)(F)F)c(OS(=O)(=O)C(F)(F)C(F)(F)C(F)(F)C(F)(F)F)nn3C)no2)ccc1Cl)C1(C#N)CC1 [Compound 44, [5-[5-[4-chloro-3-[(1-cyanocyclopropyl)-ethyl-carbamoyl]phenyl]isoxazol-3-yl]-1-methyl-4-(trifluoromethyl)pyrazol-3-yl] 1,1,2,2,3,3,4,4,4-nonafluorobutane-1-sulfonate]
≥ 80%: percent control (mortality, anti-feedant effect or growth inhibition) at 200 ppm (Spodoptera littoralis) | mortality at 200 ppm (Plutella xylostella)

CCN(C(=O)c1cc(-c2cnn(-c3c(C(F)(F)F)c(OS(=O)(=O)C(F)(F)C(F)(F)C(F)(F)C(F)(F)F)nn3C)c2)ccc1Cl)C1CC1 [Compound 13, [5-[4-[4-chloro-3-[cyclopropyl(ethyl)carbamoyl]phenyl]pyrazol-1-yl]-1-methyl-4-(trifluoromethyl)pyrazol-3-yl] 1,1,2,2,3,3,4,4,4-nonafluorobutane-1-sulfonate]
≥ 80%: percent control (mortality, anti-feedant effect or growth inhibition) at 200 ppm (Spodoptera littoralis) | mortality at 200 ppm (Plutella xylostella) | mortality at 200 ppm (Diabrotica Balteata) | mortality at 200 ppm (Thrips tabaci)

CN(C(=O)c1cc(-c2cnn(-c3c(C(F)(F)F)c(OS(=O)(=O)C(F)(F)C(F)(F)C(F)(F)C(F)(F)F)nn3C)c2)cnc1Cl)C1(C#N)CC1 [Compound 31, [5-[4-[6-chloro-5-[(1-cyanocyclopropyl)-methyl-carbamoyl]-3-pyridyl]pyrazol-1-yl]-1-methyl-4-(trifluoromethyl)pyrazol-3-yl] 1,1,2,2,3,3,4,4,4-nonafluorobutane-1-sulfonate]
≥ 80%: percent control (mortality, anti-feedant effect or growth inhibition) at 200 ppm (Spodoptera littoralis) | mortality at 200 ppm (Plutella xylostella) | mortality at 200 ppm (Diabrotica Balteata) | mortality at 200 ppm (Thrips tabaci)

CN(C(=O)c1cc(-c2cnn(-c3c(C(F)(F)F)c(OS(=O)(=O)C(F)(F)C(F)(F)F)nn3C)c2)ccc1Cl)C1CC1 [Compound 16, [5-[4-[4-chloro-3-[cyclopropyl(methyl)carbamoyl]phenyl]pyrazol-1-yl]-1-methyl-4-(trifluoromethyl)pyrazol-3-yl] 1,1,2,2,2-pentafluoroethanesulfonate]
≥ 80%: percent control (mortality, anti-feedant effect or growth inhibition) at 200 ppm (Spodoptera littoralis) | mortality at 200 ppm (Plutella xylostella; [1]) | mortality at 200 ppm (Diabrotica Balteata; [2])

Cn1nc(OS(=O)(=O)C(F)(C(F)(F)F)C(F)(F)F)c(C(F)(F)F)c1-n1cc(-c2ccc(Cl)c(C(=O)N(/C(F)=C(\F)C(F)(F)F)C3(C#N)CC3)c2)cn1 [Compound 58, [5-[4-[4-chloro-3-[(1-cyanocyclopropyl)-[(E)-1,2,3,3,3-pentafluoroprop-1-enyl]carbamoyl]phenyl]pyrazol-1-yl]-1-methyl-4-(trifluoromethyl)pyrazol-3-yl] 1,1,1,2,3,3,3-heptafluoropropane-2-sulfonate]
≥ 80%: percent control (mortality, anti-feedant effect or growth inhibition) at 200 ppm (Spodoptera littoralis) | mortality at 200 ppm (Plutella xylostella; [1]) | mortality at 200 ppm (Diabrotica Balteata; [2]) | mortality at 200 ppm (Tetranychus urticae)

Cn1nc(OS(=O)(=O)C(F)(F)C(F)(F)C(F)(F)C(F)(F)F)c(C(F)(F)F)c1-c1cc(-c2ccc(Cl)c(C(=O)NC3CC3)c2)on1 [Compound 39, [5-[5-[4-chloro-3-(cyclopropylcarbamoyl)phenyl]isoxazol-3-yl]-1-methyl-4-(trifluoromethyl)pyrazol-3-yl] 1,1,2,2,3,3,4,4,4-nonafluorobutane-1-sulfonate]
≥ 80%: mortality at 200 ppm (Plutella xylostella) | mortality at 200 ppm (Diabrotica Balteata)

Cn1nc(OS(=O)(=O)C(F)(F)C(F)(F)F)c(C(F)(F)F)c1-n1cc(-c2ccc(Cl)c(C(=O)NC3CC3)c2)cn1 [Compound 20, [5-[4-[4-chloro-3-(cyclopropylcarbamoyl)phenyl]pyrazol-1-yl]-1-methyl-4-(trifluoromethyl)pyrazol-3-yl] 1,1,2,2,2-pentafluoroethanesulfonate]
≥ 80%: percent control (mortality, anti-feedant effect or growth inhibition) at 200 ppm (Spodoptera littoralis) | mortality at 200 ppm (Plutella xylostella; [1]) | mortality at 200 ppm (Diabrotica Balteata; [2]) | mortality at 200 ppm (Thrips tabaci; [3]) | mortality at 200 ppm (Tetranychus urticae)

Cn1nc(OS(=O)(=O)C(F)(F)C(F)(F)C(F)(F)C(F)(F)F)c(C(F)(F)F)c1-n1cc(-c2cnc(Cl)c(C(=O)NC3(C#N)CC3)c2)cn1 [Compound 30, [5-[4-[6-chloro-5-[(1-cyanocyclopropyl)carbamoyl]-3-pyridyl]pyrazol-1-yl]-1-methyl-4-(trifluoromethyl)pyrazol-3-yl] 1,1,2,2,3,3,4,4,4-nonafluorobutane-1-sulfonate]
≥ 80%: percent control (mortality, anti-feedant effect or growth inhibition) at 200 ppm (Spodoptera littoralis) | mortality at 200 ppm (Plutella xylostella) | mortality at 200 ppm (Diabrotica Balteata)

CN(C(=O)c1cc(-c2cnn(-c3c(C(F)(F)F)c(OS(=O)(=O)C(F)(F)C(F)(F)C(F)(F)C(F)(F)F)nn3C)c2)ccc1Cl)C1CC1 [Compound 15, [5-[4-[4-chloro-3-[cyclopropyl(methyl)carbamoyl]phenyl]pyrazol-1-yl]-1-methyl-4-(trifluoromethyl)pyrazol-3-yl] 1,1,2,2,3,3,4,4,4-nonafluorobutane-1-sulfonate]
≥ 80%: percent control (mortality, anti-feedant effect or growth inhibition) at 200 ppm (Spodoptera littoralis) | mortality at 200 ppm (Plutella xylostella) | mortality at 200 ppm (Diabrotica Balteata)

CN(C(=O)c1cc(-c2cc(-c3c(C(F)(F)F)c(OS(=O)(=O)C(F)(F)C(F)(F)C(F)(F)C(F)(F)F)nn3C)no2)ccc1Cl)C1(C#N)CC1 [Compound 43, [5-[5-[4-chloro-3-[(1-cyanocyclopropyl)-methyl-carbamoyl]phenyl]isoxazol-3-yl]-1-methyl-4-(trifluoromethyl)pyrazol-3-yl] 1,1,2,2,3,3,4,4,4-nonafluorobutane-1-sulfonate]
≥ 80%: percent control (mortality, anti-feedant effect or growth inhibition) at 200 ppm (Spodoptera littoralis) | mortality at 200 ppm (Plutella xylostella) | mortality at 200 ppm (Diabrotica Balteata) | mortality at 200 ppm (Thrips tabaci)

CN(C(=O)c1cc(-c2cnn(-c3c(C(F)(F)F)c(OS(=O)(=O)C(F)(F)C(F)(F)C(F)(F)C(F)(F)F)nn3C)c2)cnc1Cl)C1CC1 [Compound 28, [5-[4-[6-chloro-5-[cyclopropyl(methyl)carbamoyl]-3-pyridyl]pyrazol-1-yl]-1-methyl-4-(trifluoromethyl)pyrazol-3-yl] 1,1,2,2,3,3,4,4,4-nonafluorobutane-1-sulfonate]
≥ 80%: percent control (mortality, anti-feedant effect or growth inhibition) at 200 ppm (Spodoptera littoralis) | mortality at 200 ppm (Plutella xylostella) | mortality at 200 ppm (Diabrotica Balteata) | mortality at 200 ppm (Thrips tabaci)

Cn1nc(OS(=O)(=O)F)c(C(F)(F)F)c1-n1cc(-c2ccc(Cl)c(C(=O)NC3CC3)c2)cn1 [Compound 4, 5-[4-[4-chloro-3-(cyclopropylcarbamoyl)phenyl]pyrazol-1-yl]-3-fluorosulfonyloxy-1-methyl-4-(trifluoromethyl)pyrazole]
≥ 80%: mortality at 200 ppm (Spodoptera littoralis)

CN(C(=O)c1cc(-c2cnn(-c3c(C(F)(F)F)c(OS(=O)(=O)C(F)(F)C(F)(F)Cl)nn3C)c2)ccc1Cl)C1CC1 [Compound 11, [5-[4-[4-chloro-3-[cyclopropyl(methyl)carbamoyl]phenyl]pyrazol-1-yl]-1-methyl-4-(trifluoromethyl)pyrazol-3-yl] 2-chloro-1,1,2,2-tetrafluoro-ethanesulfonate]
≥ 80%: percent control (mortality, anti-feedant effect or growth inhibition) at 200 ppm (Spodoptera littoralis) | mortality at 200 ppm (Plutella xylostella; [1]) | mortality at 200 ppm (Diabrotica Balteata; [2]) | mortality at 200 ppm (Thrips tabaci; [3])

Cn1nc(OS(=O)(=O)C(F)(C(F)(F)F)C(F)(F)F)c(C(F)(F)F)c1-n1cc(-c2ccc(Cl)c(C(N)=O)c2)cn1 [Compound 67, [5-[4-(3-carbamoyl-4-chloro-phenyl)pyrazol-1-yl]-1-methyl-4-(trifluoromethyl)pyrazol-3-yl] 1,1,1,2,3,3,3-heptafluoropropane-2-sulfonate]
≥ 80%: percent control (mortality, anti-feedant effect or growth inhibition) at 200 ppm (Spodoptera littoralis) | mortality at 200 ppm (Plutella xylostella; [1]) | mortality at 200 ppm (Tetranychus urticae)

CN(C(=O)c1cc(-c2cnn(-c3c(C(F)(F)F)c(OS(=O)(=O)C(F)(F)C(F)(F)F)nn3C)c2)ccc1Cl)C1(C#N)CC1 [Compound 7, [5-[4-[4-chloro-3-[(1-cyanocyclopropyl)-methyl-carbamoyl]phenyl]pyrazol-1-yl]-1-methyl-4-(trifluoromethyl)pyrazol-3-yl] 1,1,2,2,2-pentafluoroethanesulfonate]
≥ 80%: percent control (mortality, anti-feedant effect or growth inhibition) at 200 ppm (Spodoptera littoralis) | mortality at 200 ppm (Plutella xylostella; [1]) | mortality at 200 ppm (Diabrotica Balteata; [2]) | mortality at 200 ppm (Thrips tabaci; [3])

Cn1nc(OS(=O)(=O)C(F)(C(F)(F)F)C(F)(F)F)c(C(F)(F)F)c1-n1cc(-c2cnc(Cl)c(C(=O)NC3(C#N)CC3)c2)cn1 [Compound 24, [5-[4-[6-chloro-5-[(1-cyanocyclopropyl)carbamoyl]-3-pyridyl]pyrazol-1-yl]-1-methyl-4-(trifluoromethyl)pyrazol-3-yl] 1,1,1,2,3,3,3-heptafluoropropane-2-sulfonate]
≥ 80%: percent control (mortality, anti-feedant effect or growth inhibition) at 200 ppm (Spodoptera littoralis) | mortality at 200 ppm (Plutella xylostella; [1]) | mortality at 200 ppm (Diabrotica Balteata; [2]) | mortality at 200 ppm (Tetranychus urticae)
